Converted amounts (≈) assume the structure as drawn. Bounds are passed on as bounds.

The subject of the first test is Mannheimia haemolytica MH 6374 (ATCC 33396, reference strain). Description: MIC, broth-microdilution (CLSI VET01-A4), strain MH 6374. It counts as cell-based. As to conditions: Mannheimia haemolytica strain MH 6374, broth-microdilution; unit assumed. The method in brief:
(§1)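 MIC recorded as the lowest drug level giving no growth visible to the naked eye, from two-fold serial dilutions. Interpretation followed VET01-S3.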
In general terms: Dilution methods test growth across graded concentrations, often in twofold steps.
`CSC(C)(C)[C@H](NC(=O)c1ccc(C#Cc2ccc(CNCc3ccncc3)cc2)cc1)C(=O)NO` [Compound 241] returned an MIC MH 6374 of 0.8 µg/mL (≈ 1.59 µM).

For `CC(C)([C@H](NC(=O)c1ccc(C#Cc2ccc(CNCc3nccs3)s2)cc1)C(=O)NO)S(C)(=O)=O` [Compound 369], the MIC MH 6374 was found to be 0.2 µg/mL (≈ 0.366 µM).

As for `C=CCNCc1ccc(C#Cc2ccc(C(=O)N[C@H](C(=O)NO)C(C)(C)O)cc2)cc1` [Compound 220], the MIC MH 6374 came out at 0.8 µg/mL (≈ 1.9 µM).

A further test relates to Pasteurella multocida PM 6267 (P 2225 (L386), reference strain, mouse infection strain). Description: MIC, broth-microdilution (CLSI VET01-A4), strain PM 6267. Format: cell-based. The note with it: Pasteurella multocida strain PM 6267, broth-microdilution; unit assumed. An outline of the steps: as §1
Consider `CSC(C)(C)[C@H](NC(=O)c1ccc(C#Cc2ccc(CNCc3ccncc3)cc2)cc1)C(=O)NO` [Compound 241], for which the MIC PM 6267 is at most 0.1 µg/mL.

Compound `CC(C)([C@H](NC(=O)c1ccc(C#Cc2ccc(CNCc3nccs3)s2)cc1)C(=O)NO)S(C)(=O)=O` [Compound 369] showed an MIC PM 6267 of at most 0.1 µg/mL.

Regarding `C=CCNCc1ccc(C#Cc2ccc(C(=O)N[C@H](C(=O)NO)C(C)(C)O)cc2)cc1` [Compound 220], the MIC PM 6267 was at most 0.1 µg/mL.

The subject of another test is Pasteurella multocida PM 10775 (080130003051, BRD field isolate). As to the kind of experiment: MIC, broth-microdilution (CLSI VET01-A4), strain PM 10775. It counts as cell-based. The note with it: Pasteurella multocida strain PM 10775, broth-microdilution; unit assumed. An outline of the steps:
as §1
Regarding `CSC(C)(C)[C@H](NC(=O)c1ccc(C#Cc2ccc(CNCc3ccncc3)cc2)cc1)C(=O)NO` [Compound 241], the MIC PM 10775 is at most 0.1 µg/mL.

As to `CC(C)([C@H](NC(=O)c1ccc(C#Cc2ccc(CNCc3nccs3)s2)cc1)C(=O)NO)S(C)(=O)=O` [Compound 369], the MIC PM 10775 is at most 0.1 µg/mL.

`C=CCNCc1ccc(C#Cc2ccc(C(=O)N[C@H](C(=O)NO)C(C)(C)O)cc2)cc1` [Compound 220] registered an MIC PM 10775 of at most 0.1 µg/mL.

The next test concerns Pasteurella multocida PM 6391 (ATCC 43137, reference strain). As to the kind of experiment: MIC, broth-microdilution (CLSI VET01-A4), strain PM 6391. Format: cell-based. As to conditions: Pasteurella multocida strain PM 6391, broth-microdilution; unit assumed. The method in brief: as §1
In turn, `CSC(C)(C)[C@H](NC(=O)c1ccc(C#Cc2ccc(CNCc3ccncc3)cc2)cc1)C(=O)NO` [Compound 241] returned an MIC PM 6391 of at most 0.1 µg/mL.

`CC(C)([C@H](NC(=O)c1ccc(C#Cc2ccc(CNCc3nccs3)s2)cc1)C(=O)NO)S(C)(=O)=O` [Compound 369] showed an MIC PM 6391 of at most 0.1 µg/mL.

`C=CCNCc1ccc(C#Cc2ccc(C(=O)N[C@H](C(=O)NO)C(C)(C)O)cc2)cc1` [Compound 220] came in with an MIC PM 6391 of 0.4 µg/mL (≈ 0.949 µM).

In another test the test system is Mannheimia haemolytica MH 13065 (XB0446-6003.9, BRD field isolate). Description: MIC, broth-microdilution (CLSI VET01-A4), strain MH 13065. Format: cell-based. As to conditions: Mannheimia haemolytica strain MH 13065, broth-microdilution; unit assumed. The method in brief: as §1
In turn, `CSC(C)(C)[C@H](NC(=O)c1ccc(C#Cc2ccc(CNCc3ccncc3)cc2)cc1)C(=O)NO` [Compound 241] returned an MIC MH 13065 of 0.4 µg/mL (≈ 0.796 µM).

`CC(C)([C@H](NC(=O)c1ccc(C#Cc2ccc(CNCc3nccs3)s2)cc1)C(=O)NO)S(C)(=O)=O` [Compound 369] returned an MIC MH 13065 of 0.4 µg/mL (≈ 0.732 µM).

For the compound `C=CCNCc1ccc(C#Cc2ccc(C(=O)N[C@H](C(=O)NO)C(C)(C)O)cc2)cc1` [Compound 220], the MIC MH 13065 came to 0.8 µg/mL (≈ 1.9 µM).

A further test relates to Pasteurella multocida PM 12080 (IV102277-0093, BRD field isolate). As to the kind of experiment: MIC, broth-microdilution (CLSI VET01-A4), strain PM 12080. It counts as cell-based. As to conditions: Pasteurella multocida strain PM 12080, broth-microdilution; unit assumed. The method in brief: as §1
`CSC(C)(C)[C@H](NC(=O)c1ccc(C#Cc2ccc(CNCc3ccncc3)cc2)cc1)C(=O)NO` [Compound 241]: the MIC PM 12080 is at most 0.1 µg/mL.

In turn, `CC(C)([C@H](NC(=O)c1ccc(C#Cc2ccc(CNCc3nccs3)s2)cc1)C(=O)NO)S(C)(=O)=O` [Compound 369] came in with an MIC PM 12080 of at most 0.1 µg/mL.

As for `C=CCNCc1ccc(C#Cc2ccc(C(=O)N[C@H](C(=O)NO)C(C)(C)O)cc2)cc1` [Compound 220], the MIC PM 12080 was 0.4 µg/mL (≈ 0.949 µM).

In another test the test system is Mannheimia haemolytica MH 6357 (M7/2, reference strain, cattle infection strain). Description: MIC, broth-microdilution (CLSI VET01-A4), strain MH 6357. Format: cell-based. The note with it: Mannheimia haemolytica strain MH 6357, broth-microdilution; unit assumed. An outline of the steps: as §1
`CSC(C)(C)[C@H](NC(=O)c1ccc(C#Cc2ccc(CNCc3ccncc3)cc2)cc1)C(=O)NO` [Compound 241]: the MIC MH 6357 is 0.4 µg/mL (≈ 0.796 µM).

The compound `CC(C)([C@H](NC(=O)c1ccc(C#Cc2ccc(CNCc3nccs3)s2)cc1)C(=O)NO)S(C)(=O)=O` [Compound 369] returned an MIC MH 6357 of 0.4 µg/mL (≈ 0.732 µM).

As for `C=CCNCc1ccc(C#Cc2ccc(C(=O)N[C@H](C(=O)NO)C(C)(C)O)cc2)cc1` [Compound 220], the MIC MH 6357 worked out at 3.1 µg/mL (≈ 7.35 µM).

The next test has as its system Mannheimia haemolytica MH 13093 (XB0472-6014.1, BRD field isolate). As to the kind of experiment: MIC, broth-microdilution (CLSI VET01-A4), strain MH 13093. It counts as cell-based. The note with it: Mannheimia haemolytica strain MH 13093, broth-microdilution; unit assumed. An outline of the steps: as §1
`CSC(C)(C)[C@H](NC(=O)c1ccc(C#Cc2ccc(CNCc3ccncc3)cc2)cc1)C(=O)NO` [Compound 241]: the MIC MH 13093 stood at 0.4 µg/mL (≈ 0.796 µM).

Take `CC(C)([C@H](NC(=O)c1ccc(C#Cc2ccc(CNCc3nccs3)s2)cc1)C(=O)NO)S(C)(=O)=O` [Compound 369]: the MIC MH 13093 turned out to be 0.4 µg/mL (≈ 0.732 µM).

`C=CCNCc1ccc(C#Cc2ccc(C(=O)N[C@H](C(=O)NO)C(C)(C)O)cc2)cc1` [Compound 220] returned an MIC MH 13093 of 1.6 µg/mL (≈ 3.8 µM).

The next test has as its system Mannheimia haemolytica MH 10720 (154, BRD field isolate). As to the kind of experiment: MIC, broth-microdilution (CLSI VET01-A4), strain MH 10720. It counts as cell-based. As to conditions: Mannheimia haemolytica strain MH 10720, broth-microdilution; unit assumed. An outline of the steps:
as §1
Regarding `CSC(C)(C)[C@H](NC(=O)c1ccc(C#Cc2ccc(CNCc3ccncc3)cc2)cc1)C(=O)NO` [Compound 241], the MIC MH 10720 was at most 0.1 µg/mL.

`CC(C)([C@H](NC(=O)c1ccc(C#Cc2ccc(CNCc3nccs3)s2)cc1)C(=O)NO)S(C)(=O)=O` [Compound 369]: the MIC MH 10720 was at most 0.1 µg/mL.

For `C=CCNCc1ccc(C#Cc2ccc(C(=O)N[C@H](C(=O)NO)C(C)(C)O)cc2)cc1` [Compound 220], the MIC MH 10720 is at most 0.1 µg/mL.

The subject of a further test is Mannheimia haemolytica MH 12587 (1071, BRD field isolate, macrolide-resistance: erm+, E+). As to the kind of experiment: MIC, broth-microdilution (CLSI VET01-A4), strain MH 12587. It counts as cell-based. As to conditions: Mannheimia haemolytica strain MH 12587, broth-microdilution; unit assumed. The method in brief:
as §1
As to `CSC(C)(C)[C@H](NC(=O)c1ccc(C#Cc2ccc(CNCc3ccncc3)cc2)cc1)C(=O)NO` [Compound 241], the MIC MH 12587 is 0.8 µg/mL (≈ 1.59 µM).

For `CC(C)([C@H](NC(=O)c1ccc(C#Cc2ccc(CNCc3nccs3)s2)cc1)C(=O)NO)S(C)(=O)=O` [Compound 369], the MIC MH 12587 is 0.4 µg/mL (≈ 0.732 µM).

In turn, `C=CCNCc1ccc(C#Cc2ccc(C(=O)N[C@H](C(=O)NO)C(C)(C)O)cc2)cc1` [Compound 220] registered an MIC MH 12587 of 3.1 µg/mL (≈ 7.35 µM).

Source of the values: patent US11034650B2, “Compounds useful for treating a Mannheimia haemolytica or Histophilus somni infection” (Intervet Inc., priority 2016, dated 2021).
